Assay results taken from patent US20120094963A1, “TARGETING PRODRUGS AND COMPOSITIONS FOR THE TREATMENT OF GASTROINTESTINAL DISEASES” (of Queen Elizabeth near Dublin, priority 2008, published 2012).
Values joined by “and” are separate entries in the source; they are usually repeats but may differ in a detail not shown here. Identical values can stand only once. Like-named read-outs stand apart in the source and are kept apart here.

Tests used:
Clostridium perfringens = conditions: anaerobic, 37° C.; for Celecoxib prodrug concentration: C. perfringens in BHI
[1] = BHI media without bacteria
intestinal polyps = conditions: 100 ppm in the diet; min mice; cited from earlier work
[2] = long-term (33 months) high-dose, 400 and 800 mg daily; cited from earlier work
small intestinal polyps = conditions: 50 mg/kg qd p.o.; APCmin mice; cited from earlier work
[3] = cited from earlier work; for risk of heart attack: VIGOR study patients
[4] = APPROVe; beginning after 18 months of therapy; cited from earlier work

Cc1ccc(-c2cc(C(F)(F)F)nn2-c2ccc(S(=O)(=O)NC(=O)CCc3ccccc3/N=N/c3ccc(O)c(C(=O)O)c3)cc2)cc1 [PC1, 2-Hydroxy-5-(2-3{-oxo-3[4-(5-p-tolyl-3-trifluoromethyl-pyrazol-1-yl)-benzenesulfonylamino]-propyl}-phenylazo)-benzoic acid]
Celecoxib prodrug concentration (Clostridium perfringens; 0 hours): 15.59 µM and 14.97 µM
Celecoxib prodrug concentration (Clostridium perfringens; 8 hours): 0.00 µM
Celecoxib prodrug concentration (Clostridium perfringens; 24 hours): 0.00 µM
Azoreductase activity of Clostridium perfringens towards the prodrug (Clostridium perfringens): Azoreductase activity was observed
Celecoxib prodrug in BHI ([1]; 0 hours): 16.70 µM
Celecoxib prodrug in BHI ([1]; 2 hours): 18.40 µM
Celecoxib prodrug in BHI ([1]; 4 hours): 17.14 µM
Celecoxib prodrug in BHI ([1]; 6 hours): 15.29 µM
Celecoxib prodrug in BHI ([1]; 8 hours): 15.15 µM
Celecoxib prodrug in BHI ([1]; 24 hours): 16.99 µM

CC(C)c1c(C(=O)Nc2ccccc2)c(-c2ccccc2)c(-c2ccc(F)cc2)n1CC[C@@H](O)C[C@@H](O)CC(=O)O [atorvastatin]
intestinal polyp formation (intestinal polyps): significantly (P<0.002) suppressed intestinal polyp formation

Cc1ccc(-c2cc(C(F)(F)F)nn2-c2ccc(S(N)(=O)=O)cc2)cc1 [celecoxib]
cardiovascular risk [2]: increased cardiovascular risk compared with placebo

C#Cc1cccc(Nc2ncnc3cc(OCCOC)c(OCCOC)cc23)c1 [erlotinib]
inhibition in total polyp number (small intestinal polyps): 57%
reduction in the number of 1- to 2-mm-sized polyps (small intestinal polyps): 46%
reduction in the number of <1-mm-sized polyps (small intestinal polyps): 43%
reduction in the number of large-sized (>2 mm) polyps (small intestinal polyps): 96%

COc1ccc2cc([C@H](C)C(=O)O)ccc2c1 [naproxen]
risk of heart attack [3]: 0.1%

CS(=O)(=O)c1ccc(C2=C(c3ccccc3)C(=O)OC2)cc1 [rofecoxib]
risk of heart attack [3]: 0.4%
RR of heart attack ([3]; VIGOR study, naproxen patients compared with rofecoxib patients): 0.25
risk of adverse thrombotic cardiovascular events [4]: increased relative risk of adverse thrombotic cardiovascular events
